From patent US20250332300A1 (priority 2024, published 2025)
Structures can show the parent of a compound that is named as a salt. Where two headings read alike, the source gives them in different places. Starred links: 1 amine or outer side, 2 acyl side, 3 side chain; linkers in the order of their positions; H or OH if unused. Positions of bridges follow the written chain, without caps; N, C: chain ends. Non-standard residues stand in square brackets, D forms with d. Residues, ends and D or L forms follow the SMILES beside them. Trp(5-OH) = N[C@@H](Cc1c[nH]c2ccc(O)cc12)C(=O)O; NMePhe(4-F) = CN[C@@H](Cc1ccc(F)cc1)C(=O)O; X2 = O=C([C@H](Cc1ccc(O)nc1)N[*:1])[*:2]; NMehPhe = CN[C@@H](CCc1ccccc1)C(=O)O; Aad = N[C@@H](CCCC(=O)O)C(=O)O; Gly(cPr) = N[C@H](C(=O)O)C1CC1; NMeD = CN[C@@H](CC(=O)O)C(=O)O; NMeDap = CN[C@@H](CN)C(=O)O; 3Amb = NCc1cccc(C(=O)O)c1; NMeC = CN[C@@H](CS)C(=O)O; NMeS = CN[C@@H](CO)C(=O)O; Dap = NC[C@H](N)C(=O)O; X5 = O=C(C[*:2])[*:1]

Experiments:
Format in all cases: binding
human HER2 (23-652) [1] = target: T1, human HER2 (23-652) (Homo sapiens, UniProt P04626); assay: Surface plasmon resonance (SPR) for assessment of peptide affinity, human HER2; set-up: towards human HER2 (23-652) and mouse HER2 (23-653); made in house
Procedure, shortened: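 Binding kinetics fitted from sensorgrams with 280 s peptide association then 3000 s dissociation (30 uL/min), using HER2 (23-652) either directly immobilized (SA/CM5) or anti-Fc-captured; 3 M magnesium chloride used for regeneration.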

mouse HER2 (23-653) [2] = target: T2, mouse HER2 (23-653) (Mus musculus, UniProt P70424); assay: Surface plasmon resonance (SPR) for assessment of peptide affinity, mouse HER2; set-up: mouse HER2 (23-653) using a Cy5 labeled peptide as a probe; made in house; details: SPR, mouse HER2 extracellular domain, 25° C., 1:1 binding model; read-out: moHER2-SPR-ONC KD
Text: Each protein was immobilized either onto a SA sensorchip (Cytiva, BR-1005-31) or CM5 sensorchip (Cytiva, BR-1005-30) to a density of 800-2000 RU.

human HER2 (23-652) [3] = target: T1, human HER2 (23-652); assay: TR-FRET competition assay for peptide potency, human HER2; set-up: towards human HER2 (23-652) and mouse HER2 (23-653); made in house; host or cells: mammalian cells
mouse HER2 (23-653) [4] = target: T2, mouse HER2 (23-653); assay: TR-FRET competition assay for peptide potency, mouse HER2; set-up: mouse HER2 (23-653) using a Cy5 labeled peptide as a probe; made in house; host or cells: mammalian cells
[5] = SPR, human HER2 extracellular domain, 25° C., 1:1 binding model, read-out: huHER2-SPR-ONC KD
[6] = TR-FRET competition with Cy5 labeled peptide probe, 0.1 nM mouse HER2, 24 h incubation, read-out: moHER2 TR-FRET IC50
[7] = huHER2 TR-FRET IC50, TR-FRET competition with Cy5 labeled peptide probe, 0.1 nM human HER2, 24 h incubation

SMILES | Kd (human HER2 (23-652) [1]; [5]) | Kd (mouse HER2 (23-653) [2]) | IC50 (human HER2 (23-652) [3]; read-out: huHER2 TR-FRET IC50) | IC50 (mouse HER2 (23-653) [4]; [6]) | IC50 (human HER2 (23-652) [3]; TR-FRET competition with Cy5 labeled peptide probe, 0.1 nM human HER2, 24 h incubation, read-out: huHER2 TR-FRET IC50) | IC50 (mouse HER2 (23-653) [4]; value in parentheses (**): recalculated after further repetition, read-out: moHER2 TR-FRET IC50, recalculated value achieved after further repetition) | Kd (human HER2 (23-652) [1]) | IC50 (human HER2 (23-652) [3]; [7])
CC(=O)N[C@H]1CCCC(=O)NC[C@@H](C(=O)N(C)[C@@H](Cc2ccc(F)cc2)C(=O)N[C@@H](CCCCNC(=O)CN2CCN(CC(=O)O)CCN(CC(=O)O)CCN(CC(=O)O)CC2)C(N)=O)N(C)C(=O)[C@H]([C@H](C)O)NC(=O)[C@H](Cc2c[nH]c3ccccc23)NC(=O)[C@H](Cc2c[nH]c3ccc(O)cc23)NC(=O)[C@H](CCCCNC(=O)CO)N(C)C(=O)[C@H](CCc2ccccc2)N(C)C(=O)[C@H](CO)NC(=O)[C@H](Cc2ccc(O)cc2)NC1=O [Example B6] | 0.5 nM | 1.2 nM | 0.3 nM | 1.1 nM |  |  |  | 
CN1C(=O)[C@H](CO)NC(=O)[C@H](Cc2ccc(O)cc2)NC(=O)[C@@H](N)CNC(=O)CSC[C@@H](C(=O)N(C)[C@@H](Cc2ccc(F)cc2)C(N)=O)N(C)C(=O)[C@H](C2CC2)NC(=O)[C@H](Cc2c[nH]c3ccccc23)NC(=O)[C@H](Cc2c[nH]c3ccc(O)cc23)NC(=O)[C@H](CO)N(C)C(=O)[C@@H]1CCc1ccccc1 [Example A53, (3R,6S,9S,12S,15S,18S,21S,24S,27S)-9-((1H-indol-3-yl)methyl)-27-amino-N—((S)-1-amino-3-(4-fluorophenyl)-1-oxopropan-2-yl)-6-cyclopropyl-12-((5-hydroxy-1H-indol-3-yl)methyl)-24-(4-hydroxybenzyl)-15,21-bis(hydroxymethyl)-N,4,16,19-tetramethyl-5,8,11,14,17,20,23,26,30-nonaoxo-18-phenethyl-1-thia-4,7,10,13,16,19,22,25,29-nonaazacyclohentriacontane-3-carboxamide TFA salt] (H-[Dap]YS[NMehPhe][NMeS][Trp(5-OH)]W[Gly(cPr)][NMeC][NMePhe(4-F)]-NH2; linker 1-9 via X5) |  | 154 nM |  | 466 nM |  |  | 132 nM | 163 nM
CN1C(=O)[C@H](CO)NC(=O)[C@H](Cc2ccc(O)cc2)NC(=O)[C@@H](N)CCCC(=O)NC[C@@H](C(=O)N(C)[C@@H](Cc2ccc(F)cc2)C(N)=O)N(C)C(=O)[C@H](C2CC2)NC(=O)[C@H](Cc2c[nH]c3ccccc23)NC(=O)[C@H](Cc2c[nH]c3ccc(O)cc23)NC(=O)[C@H](CO)N(C)C(=O)[C@@H]1CCc1ccccc1 [Example A36, (3S,6S,9S,12S,15S,18S,21S,24S,27S)-9-((1H-indol-3-yl)methyl)-27-amino-N-((S)-1-amino-3-(4-fluorophenyl)-1-oxopropan-2-yl)-6-cyclopropyl-12-((5-hydroxy-1H-indol-3-yl)methyl)-24-(4-hydroxybenzyl)-15,21-bis(hydroxymethyl)-N,4,16,19-tetramethyl-5,8,11,14,17,20,23,26,31-nonaoxo-18-phenethyl-1,4,7,10,13,16,19,22,25-nonaazacyclohentriacontane-3-carboxamide TFA salt] (H-[Aad]YS[NMehPhe][NMeS][Trp(5-OH)]W[Gly(cPr)][NMeDap][NMePhe(4-F)]-NH2; lactam 1-9) |  | 34 nM |  | 102 nM |  |  | 38 nM | 52 nM
CC(=O)N[C@H]1CCC(=O)NC[C@@H](C(=O)N(C)[C@@H](Cc2ccc(F)cc2)C(N)=O)N(C)C(=O)[C@H](C2CC2)NC(=O)[C@H](Cc2c[nH]c3ccccc23)NC(=O)[C@H](Cc2c[nH]c3ccc(O)cc23)NC(=O)[C@H](CO)N(C)C(=O)[C@H](CCc2ccccc2)N(C)C(=O)[C@H](CO)NC(=O)[C@H](Cc2ccc(O)nc2)NC1=O [Example A1, (3S,6S,9S,12S,15S,18S,21S,24S,27S)-9-((1H-indol-3-yl)methyl)-27-acetamido-N—((S)-1-amino-3-(4-fluorophenyl)-1-oxopropan-2-yl)-6-cyclopropyl-12-((5-hydroxy-1H-indol-3-yl)methyl)-15,21-bis(hydroxymethyl)-24-((6-hydroxypyridin-3-yl)methyl)-N,4,16,19-tetramethyl-5,8,11,14,17,20,23,26,30-nonaoxo-18-phenethyl-1,4,7,10,13,16,19,22,25-nonaazacyclotriacontane-3-carboxamide] (Ac-E[X2]S[NMehPhe][NMeS][Trp(5-OH)]W[Gly(cPr)][NMeDap][NMePhe(4-F)]-NH2; lactam 1-9) | 97 nM | 98 nM | 111 nM | 224 nM |  |  |  | 

Continued, in another order:

Kd (human HER2 (23-652) [1]; [5]) | Kd (mouse HER2 (23-653) [2]) | IC50 (human HER2 (23-652) [3]; read-out: huHER2 TR-FRET IC50) | IC50 (mouse HER2 (23-653) [4]; [6]) | IC50 (human HER2 (23-652) [3]; TR-FRET competition with Cy5 labeled peptide probe, 0.1 nM human HER2, 24 h incubation, read-out: huHER2 TR-FRET IC50) | IC50 (mouse HER2 (23-653) [4]; value in parentheses (**): recalculated after further repetition, read-out: moHER2 TR-FRET IC50, recalculated value achieved after further repetition) | SMILES | Kd (human HER2 (23-652) [1]) | IC50 (human HER2 (23-652) [3]; [7])
2810 nM | 5080 nM | > 1000 nM | > 1000 nM |  |  | CN1C(=O)[C@H](CO)NC(=O)[C@H](Cc2ccc(O)cc2)NC(=O)c2cccc(c2)CNC(=O)C[C@@H](C(=O)N(C)[C@@H](Cc2ccc(F)cc2)C(N)=O)N(C)C(=O)[C@H](C2CC2)NC(=O)[C@H](Cc2c[nH]c3ccccc23)NC(=O)[C@H](Cc2c[nH]c3ccc(O)cc23)NC(=O)[C@H](CO)N(C)C(=O)[C@@H]1CCc1ccccc1 [Example A24, (4S,7S,10S,13S,16S,19S,22S,25S)-19-((1H-indol-3-yl)methyl)-N-((S)-1-amino-3-(4-fluorophenyl)-1-oxopropan-2-yl)-22-cyclopropyl-16-((5-hydroxy-1H-indol-3-yl)methyl)-4-(4-hydroxybenzyl)-7,13-bis(hydroxymethyl)-N,9,12,24-tetramethyl-2,5,8,11,14,17,20,23,27-nonaoxo-10-phenethyl-3,6,9,12,15,18,21,24,28-nonaaza-1(1,3)-benzenacyclononacosaphane-25-carboxamide] ([3Amb]YS[NMehPhe][NMeS][Trp(5-OH)]W[Gly(cPr)][NMeD][NMePhe(4-F)]-NH2; lactam N-9) |  | 
47 nM | 39 nM |  | 76 nM | 62 nM | 49 nM | CC(=O)NCCCC[C@H]1C(=O)N[C@@H](Cc2c[nH]c3ccc(O)cc23)C(=O)N[C@@H](Cc2c[nH]c3ccccc23)C(=O)N[C@@H]([C@H](C)O)C(=O)N(C)[C@H](C(=O)N(C)[C@@H](Cc2ccc(F)cc2)C(=O)N[C@@H](CCCCNC(=O)N2CCN(CC(=O)O)CC2)C(=O)N[C@H](CCCCNC(=O)CN2CCN(CC(=O)O)CCN(CC(=O)O)CCN(CC(=O)O)CC2)C(N)=O)CNC(=O)CC[C@H](NC(C)=O)C(=O)N[C@@H](Cc2ccc(O)cc2)C(=O)N[C@@H](CO)C(=O)N(C)[C@@H](CCc2ccccc2)C(=O)N1C [Example C23] |  | 
< 0.1 nM | 0.3 nM | < 0.1 nM | 0.2 nM |  |  | CC(=O)NCCCC[C@H]1C(=O)N[C@@H](Cc2c[nH]c3ccc(O)cc23)C(=O)N[C@@H](Cc2c[nH]c3ccccc23)C(=O)N[C@@H](C2CC2)C(=O)N(C)[C@H](C(=O)N(C)[C@@H](Cc2ccc(F)cc2)C(=O)N[C@@H](CCCCNC(=O)c2ccc(F)nc2)C(N)=O)CNC(=O)CCC[C@H](NC(C)=O)C(=O)N[C@@H](Cc2ccc(O)cc2)C(=O)N[C@@H](CO)C(=O)N(C)[C@@H](CCc2ccccc2)C(=O)N1C [Example F1] |  | 
